Results reported in ChEMBL document CHEMBL5727727, “(Aza)pyridopyrazolopyrimidinones and indazolopyrimidinones and their use” (2020).

Experiment: Plasma-Based Clot Lysis Assay: The clot-lysis test system configures the kinetics of clot formation and degradation in vitro and allows quantifying modulation of the process by selected test compounds.The test compounds were dissolved in 1% acetic acid and further complemented with an equal volume of DMSO. The resulting stock solutions were serially diluted in 0.5% acetic acid/50% DMSO. 1 μL aliquots of these solutions were placed into 384 well microplates (Greiner, black, transparent bottom), followed by 30 μL of diluted human citrated plasma (platelet-poor, final concentration: 5%; supplemented with fibrinogen, final concentration: 3 μM; dilution buffer: 20 mM HEPES, 150 mM NaCl, 0.01% Brij (pH 7)). The reactions were started by addition of 20 μL of CaCl2 (final concentration: 10 mM), and tPA (tissue plasminogen activator, final concentration: 0.2 nM) in dilution buffer, followed by an additional volume of 20 μL dilution buffer for improved mixing. The reactions were incubated at 37° C. Clot formation and degradation was monitored spectrophotometrically by kinetic optical density measurements at 405 nm. IC50 values were determined by comparing the resulting time courses with the time course of a blank control reaction.

O=c1cc(C2CCNCC2)n2nc3cncc(Br)c3c2[nH]1
IC50: 0.1 µM

Nc1cccc2nn3c(C4CCNCC4)cc(=O)[nH]c3c12
IC50: 0.035 µM

O=c1cc(C2CCNCC2)n2nc3cc(F)cnc3c2[nH]1
IC50: 0.021 µM
